Laboratory results as given in article PMC6540241, “Targeting Tumor Markers with Antisense Peptides: An Example of Human Prostate Specific Antigen” (International Journal of Molecular Sciences, 2019).
Where a SMILES comes first, the peptide text is derived from it. Where no end group is shown, it is not given here. The star is where a group is joined. Biotin = O=C1N[C@H]2[C@H](CS[C@H]2CCCCC(=O)*)N1

B1: Human prostate specific antigen (hPSA) peptide 53–59: RHSLFHP (peptide)
peptide: RHSLFHP
notes: human prostate specific antigen (hPSA), residues 53-59 (R53-P59); 77-83 of the precursor P07288; In the magnetic particle enzyme immunoassay the peptide was coupled by EDC to SPHERO carboxyl magnetic particles; also called sense peptide; source: synthetic peptide, bought: GenScript (>97% purity)
B2: N-terminal biotin antisense peptide Biotin-AVRDKVG (peptide)
peptide: Biotin-AVRDKVG
modifications: not fully specified
notes: Some sentences print AKRDKVG; also called biotinylated antisense peptide AVRDKVG; antisense paratope Biotin-AVRDKVG; source: synthetic peptide, bought: GenScript (>97% purity)

What was measured:
[1] = target: T1, hPSA peptide RHSLFHP coated onto carboxyl magnetic particles (Homo sapiens, UniProt P07288); experiment: Magnetic particle enzyme immunoassay (MPEIA); format: binding
T1 construct: Human prostate specific antigen (hPSA) peptide 53–59: RHSLFHP; purchased GenScript; host or cells: synthetic peptide
Experimental: Briefly, the reaction mixture was composed of 2 mL sodium acetate buffer (0.01M, pH 5.0), 2 mg of peptide and 2 mL of 2.5% w/v carboxyl magnetic particles―1.14 μm, 20 mg of EDC. Reactions proceeded in glass reaction tubes overnight at room temperature in a rotary mixer. Tubes were centrifuged at 3000× g for 15 min, supernatant was carefully discarded, and the pellets were washed twice in 4 mL isotonic buffered saline (IBS), followed by centrifugation. After washing, coated magnetic particles were resuspended in 4 mL of PBS containing 0.05% Tween 20.
Two folds serial dilutions (1.09–70 µM) of biotinylated antisense peptide AVRDKVG were made in 96-well microtiter plates to generate standard curves (Figure 4b). Mismatched peptide Biotin-EHFRW was used as a negative control (Figure 4b). A suspension (1.25% w/v) of carboxyl magnetic particles, coated with sense peptide RHSLFHP, was added to each well (40 µL/well). The plates were incubated at room temperature for 30 min and washed with PBS-Tween 20 five times. The washing solution was removed each time using the Spherotech UltraMag Separator (Sperotech, Inc., Lake Forest, IL, USA).
A blocking solution (PBS with 1% BSA) was added to the wells and incubated at room temperature for one hour. […] The absorbances were read at 450 nm on a multiwell plate reader. The data were analyzed using GraphPad Prism software version 5.

[2] = tested on: human prostate specific antigen (hPSA) in prostate cancer tissue; experiment: Immunohistochemical staining of hPSA, protocol 2 (biotinylated peptide instead of primary antibody); parameters: key to overall quality of scoring (NordiQC) / hPSA staining quality score (NordiQC): 3: Staining reaction considered perfect or close to perfect.; 2: Staining reaction considered fully acceptable. The protocol may be optimized to ensure the best staining intensity and signal-to-noise ratio.; 1: Staining considered insufficient.; 0: Staining considered very insufficient
Experimental: (§1) Immunohistochemistry was performed on deparafinized slides (xylen and a series of ethanol solutions) at room temperature (20–25 °C). The phosphate-buffered saline (PBS) was used, with a pH of 7.2 and containing disodium hydrogen phosphate, sodium chloride, potassium chloride and potassium dihydrogen phosphate was used. PBS stock solution: 4 g KH2PO4, 23 g Na2HPO4, 4 g KCl, 160 g NaCl and 810 mL distilled water. Before staining, 100 mL of stock solution was diluted with 1900 mL of distilled water.
All slides (from seven patients) were selected from the repository of prostate cancer tissue, with diagnosis confirmed by consensus of two independent pathologists. The two pathologists who examined the slides stained with antisense peptides were unconnected with the pathologists who established the initial diagnosis.
(§2) Each of the two immunohistochemistry protocols for PSA staining consisted of six steps. Steps 1, 4, 5 and 6 of protocol 1 and protocol 2 were identical, while steps 2 and 3 differed (Figure 5 and Figure 6). For this study, the slides were kept in the dark at room temperature (20–25 °C), to prevent fading as a result of exposure to strong light. They were analyzed using an Olympus BX41 microscope, with an Olympus DP71 camera set to three levels of magnification: less than 40×, 100×, and 500×.
(§3) The staining protocol 2 was a modified IHC protocol 1, as follows: In step 2 we used antisense peptide Biotin-AVRDKVG, instead of the primary monoclonal mouse anti-human PSA antibody, in step 3 we used rabbit polyclonal antibody to biotin conjugated to HRP, instead of HRP labeled polymer conjugated to goat anti-mouse immunoglobulins (Figure 5), with peptide Biotin-EHFRW as a negative control (Figure 7). Otherwise, the procedures and chemicals were identical. Quality control for the PSA staining was investigated using NordiQC scoring criteria: 0—Poor; 1—Borderline; 2—Good; 3—Optimal. The scale is presented in Table A2, and the final results given in Table 4 are expressed as a sum of scores.
IHC staining―protocol 2: • The specimen was covered with peroxidase block, i.e., 100 μL of 0.03% hydrogen peroxide containing sodium azide (Dako, Glostrup, Denmark), and incubated for four minutes. Following this, the specimen was gently rinsed with phosphate buffered saline (PBS), and placed in a fresh buffer bath. • Biotinylated antisense peptide AVRDKVG (GenScript, Piscataway, NJ, USA) directed to PSA epitope 53–59 (RHSLFHP) was used to cover the specimen. Five milligrams of Biotin-AVRDKVG antisense was diluted in 2.5 mL PBS. Dilutions 1:10, 1:50, 1:100, 1:200 and 1:500 were applied to cover the specimen. A 100 μL volume was used per section. After 30 min of incubation, each specimen was gently rinsed with PBS and placed in a fresh buffer bath. • Anti-biotin antibody conjugated to HRP (ab34645, Abcam, Cambridge, UK) was applied to cover the specimen. Of the antibody 10 mg/2 mL was diluted 1:100. One hundred microliters of the diluted antibody was applied to cover each specimen, followed by a 30 min incubation. After the incubation, the specimen was gently rinsed with PBS and placed in a fresh buffer bath. • The specimen was covered with 100 μL of AEC + substrate-chromogen solution for 10 min, i.e., 3-amino-9-ethylcarbazole containing hydrogen peroxide, stabilizers, enhancers and an anti-microbial agent (Dako, Glostrup, Denmark). After that period the specimen was again rinsed with PBS. • The slides were immersed in a bath of aqueous hematoxylin (Mayerr’s hematoxylin), and rinsed gently in a distilled water bath. The slides were dipped 10 times into a bath of ammonia (0.037 mol/L), and then rinsed in a bath of distilled water for four minutes. • The specimens were mounted and coverslipped with non-aqueous permanent mounting medium Ultramount.

[3] = tested on: liver tissue; experiment: Immunohistochemical staining of negative control tissue (protocol 2); parameters: species or system human
Experimental: as §1
as §2, with “For this study, the slides were kept in the dark at room temperature (20–25 °C), to prevent fading as a result of exposure to strong light.” left out
as §3, with “Otherwise, the procedures and chemicals were identical. Quality control for the PSA staining was investigated using NordiQC scoring criteria: 0—Poor; 1—Borderline; 2—Good; 3—Optimal.” left out, “scores. […]” for “scores.”

[4] = target: T2, hPSA peptide RHSLFHP (residues 53–59) (Homo sapiens, UniProt P07288); experiment: Microscale thermophoresis (MST); format: binding
T2 construct: Human prostate specific antigen (hPSA) peptide 53–59: RHSLFHP; purchased GenScript; host or cells: synthetic peptide
Experimental: The binding between the biotinylated antisense peptide AVRDKVG and a titrant, i.e., hPSA peptide RHSLFHP (Figure 3b), was observed by the method of microscale thermophoresis (MST). MST-analysis was performed using the Monolith.NT.115 instrument (NanoTemper Technologies GmbH, Munich, Germany). Biotin-AVRDKVG antisense directed to the hPSA region 53–59 was labeled with DY-495 (Red). The labeling procedure and the subsequent removal of unattached dye were performed within 45 min. A serial dilution of the non-labeled hPSA titrant was prepared in a 10 mM phosphate buffer. The concentration of biotin-hPSA antisense labelled with DY-495 was kept constant, while the concentration of the non-fluorescent binding partner (hPSA peptide RHSLFHP53–59) was varied between 0.0854 µM and 2.8 mM. After a short incubation, the samples were loaded into MST NT.115 standard glass capillaries and the MST-analysis was performed. The data were analyzed using GraphPad Prism software version 5.

[5] = target: B2; experiment: MST; Biotin-AVRDKVG labelled with DY-495 kept constant; unlabelled RHSLFHP titrated 0.0854 µM to 2.8 mM in 10 mM phosphate buffer; Monolith NT.115, standard capillaries; conditions: both partners purified
[6] = target: B1; experiment: magnetic particle enzyme immunoassay (MPEIA); RHSLFHP coupled by EDC to SPHERO carboxyl magnetic particles; biotinylated peptide in two-fold dilutions 1.09–70 µM, room temperature, 30 min, PBS-Tween 20 washes; detected with streptavidin-peroxidase polymer and OPD, absorbance at 450 nm; conditions: both partners purified
[7] = mismatched peptide, negative control

Molecule: Biotin-EHFRW: N-terminal biotin mismatched peptide, negative control [reference compound]
- binding to hPSA epitope RHSLFHP [1, 7]: does not bind

Molecule: Biotin-EHFRW [N-terminal biotin mismatched peptide, negative control, reference compound]
- staining of hPSA of the prostate tissue [2, 7]: did not stain

Molecule: CC(C)[C@H](NC(=O)[C@H](C)NC(=O)CCCC[C@@H]1SC[C@@H]2NC(=O)N[C@@H]21)C(=O)N[C@@H](CCCNC(=N)N)C(=O)N[C@@H](CC(=O)O)C(=O)N[C@@H](CCCCN)C(=O)N[C@H](C(=O)NCC(=O)O)C(C)C [Biotin-AVRDKVG] (Biotin-AVRDKVG-OH)
- staining of negative control tissue [3]: did not stain
- Kd ([1]; peptide 1.09–70 µM, 30 min, room temperature, streptavidin-peroxidase/OPD, 450 nm, r^2 = 0.996, mean ± SEM (SEM 0.20 µM), read-out: dissociation constant (Kd)): 24.6 µM
- Kd ([4]; Biotin-AVRDKVG labelled with DY-495, constant, RHSLFHP 0.0854 µM–2.8 mM, 10 mM phosphate buffer, r^2 = 0.989, mean ± SEM, read-out: dissociation constant (Kd)): 24.3 ± 0.74 µM
- effect of N-terminal biotinylation on binding ([4]; versus Kd of the non-biotinylated peptide by tryptophan fluorescence): does not significantly alter the binding to hPSA region 53–59 (RHSLFHP)
- signal to noise ratio versus standard monoclonal antibody ([2]; compared with primary monoclonal mouse anti-human PSA antibody): comparable to the standard primary monoclonal mouse anti-human PSA antibody
- hPSA staining quality score (NordiQC) ([2]; dilution 1:10 (of 5 mg in 2.5 mL PBS), patient 1): 0
- hPSA staining quality score (NordiQC) ([2]; dilution 1:10, patient 2): 0
- hPSA staining quality score (NordiQC) ([2]; dilution 1:10, patient 3): 0
- hPSA staining quality score (NordiQC) ([2]; dilution 1:10, patient 4): 0
- hPSA staining quality score (NordiQC) ([2]; dilution 1:10, patient 5): 0
- hPSA staining quality score (NordiQC) ([2]; dilution 1:10, patient 6): 0
- hPSA staining quality score (NordiQC) ([2]; dilution 1:10, patient 7): 0
- Sum of scores (NordiQC) ([2]; dilution 1:10, seven patients): 0
- hPSA staining quality score (NordiQC) ([2]; dilution 1:50, patient 1): 1
- hPSA staining quality score (NordiQC) ([2]; dilution 1:50, patient 2): 1
- hPSA staining quality score (NordiQC) ([2]; dilution 1:50, patient 3): 2
- hPSA staining quality score (NordiQC) ([2]; dilution 1:50, patient 4): 1
- hPSA staining quality score (NordiQC) ([2]; dilution 1:50, patient 5): 1
- hPSA staining quality score (NordiQC) ([2]; dilution 1:50, patient 6): 1
- hPSA staining quality score (NordiQC) ([2]; dilution 1:50, patient 7): 1
- Sum of scores (NordiQC) ([2]; dilution 1:50, seven patients): 8
- staining of prostate cancer tissue ([2]; dilution 1:100): solid staining signal with minimal or absent background noise
- hPSA staining quality score (NordiQC) ([2]; dilution 1:100, patient 1): 2
- hPSA staining quality score (NordiQC) ([2]; dilution 1:100, patient 2): 2
- hPSA staining quality score (NordiQC) ([2]; dilution 1:100, patient 3): 3
- hPSA staining quality score (NordiQC) ([2]; dilution 1:100, patient 4): 2
- hPSA staining quality score (NordiQC) ([2]; dilution 1:100, patient 5): 3
- hPSA staining quality score (NordiQC) ([2]; dilution 1:100, patient 6): 2
- hPSA staining quality score (NordiQC) ([2]; dilution 1:100, patient 7): 2
- Sum of scores (NordiQC) ([2]; dilution 1:100, seven patients): 16
- hPSA staining quality score (NordiQC) ([2]; dilution 1:200, patient 1): 0
- hPSA staining quality score (NordiQC) ([2]; dilution 1:200, patient 2): 1
- hPSA staining quality score (NordiQC) ([2]; dilution 1:200, patient 3): 1
- hPSA staining quality score (NordiQC) ([2]; dilution 1:200, patient 4): 1
- hPSA staining quality score (NordiQC) ([2]; dilution 1:200, patient 5): 1
- hPSA staining quality score (NordiQC) ([2]; dilution 1:200, patient 6): 1
- hPSA staining quality score (NordiQC) ([2]; dilution 1:200, patient 7): 1
- Sum of scores (NordiQC) ([2]; dilution 1:200, seven patients): 6
- hPSA staining quality score (NordiQC) ([2]; dilution 1:500, patient 1): 0
- hPSA staining quality score (NordiQC) ([2]; dilution 1:500, patient 2): 0
- hPSA staining quality score (NordiQC) ([2]; dilution 1:500, patient 3): 0
- hPSA staining quality score (NordiQC) ([2]; dilution 1:500, patient 4): 0
- hPSA staining quality score (NordiQC) ([2]; dilution 1:500, patient 5): 0
- hPSA staining quality score (NordiQC) ([2]; dilution 1:500, patient 6): 0
- hPSA staining quality score (NordiQC) ([2]; dilution 1:500, patient 7): 0
- Sum of scores (NordiQC) ([2]; dilution 1:500, seven patients): 0
- staining of prostate cancer tissue ([2]; dilutions 1:10 and 1:50): increase in background noise
- staining of prostate cancer tissue ([2]; dilutions 1:200 and 1:500): loss of staining signal
- non-specific staining of prostate tissue ([2]; high concentration (1:10)): increase in background
- overall quality of scoring (NordiQC) ([2]; overall): 2

Molecule: B1
- Kd [5]: 24.3 µM

Molecule: B2
- Kd [6]: 24.6 µM
